Assay results published in patent publication US20230391772A1, “METHODS AND COMPOSITIONS FOR TARGETED PROTEIN DEGRADATION” (Ranok Therapeutics (Hangzhou) Co. Ltd., priority 2020, published 2023).

Experiments:
HSP90a protein = molecular target: T1, HSP90a protein (Homo sapiens, UniProt P07900); assay: HSP90α-binding fluorescent polarization (FP) assay, BODIPY-labeled RNK04010 probe; details: FP competition with RNK04010 (BODIPY-labeled), 5 nM, 300 min at 25° C.
T1 construct: purchased BPS Bioscience 50298
How it was run: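 Competitive FP with N-terminal HSP90a; probe at 5 nM final, either BODIPY-labeled triazolone RNK04010 or FITC-geldanamycin. Test compounds as 2.5-fold dilutions from 20 μM to 5.2 nM. Incubated at 25 °C for 300 min (RNK04010) or 120 min (FITC-geldanamycin) before reading polarization.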

[1] = test system: NCI-H358 human non-small cell lung cancer; assay: NCI-H358 CCK-8 proliferation assay; format: cell-based; details: NCI-H358 cells, 72 hr
Method: The following cancer cell lines were employed: BT-474 human breast carcinoma (ATCC, #HTB-20); MIA PaCa-2 human pancreatic carcinoma [2 copies KRAS(G12C)](ATCC, #CRL-1420); NCI-H23 human non-small cell lung cancer [1 copy KRAS(G12C)](ATCC, #CRL-5800); NCI-H358 human non-small cell lung cancer [1 copy KRAS(G12C)](ATCC, #CRL-5807); LU65A human lung carcinoma (Pharmaron, Beijing, China). Cell lines were cultured essentially according to ATCC and Pharmaron recommendations.
Cancer Cell Line Proliferation (CCK-8) Assays
3-fold serial dilutions of each test compound were prepared ranging from 20 μM to 1.02 nM.
% Inhibition=100−(D−B)/(S−B)*100%. • S: Absorbance of cells treated with DMSO • D: Absorbance of compound-treated cells • B: Absorbance of medium with DMSO without cells

SMILES | IC50 (HSP90a protein) [µM] | EC50 [1] [µM]
C=CC(=O)N1CCN(c2nc(NCCC(=O)NCCOCCOCCN[C@@H](C)C(=O)N[C@H](C(=O)N3CCC[C@H]3C(=O)Nc3snnc3-c3ccccc3)C3CCCCC3)nc3c2CCN(c2cc(O)cc4ccccc24)C3)CC1 [Compound 20, (S)-1-((2S,5S)-18-((4-(4-acryloylpiperazin-1-yl)-7-(3-hydroxynaphthalen-1-yl)-5,6,7,8-tetrahydropyrido[3,4-d]pyrimidin-2-yl)amino)-2-cyclohexyl-5-methyl-4,16-dioxo-9,12-dioxa-3,6,15-triazaoctadecanoyl)-N-(4-phenyl-1,2,3-thiadiazol-5-yl)pyrrolidine-2-carboxamide, trifluoroacetic acid] | > 1 | > 1
C=CC(=O)N1CCN(c2nc(NCCC(=O)N3CCC(CN4CCN(Cc5ccc(-n6c(O)nnc6-c6cc(CC)c(O)cc6O)cc5F)CC4)CC3)nc3c2CCN(c2cc(O)cc4ccccc24)C3)CC1 [Compound 8, 1-(4-(2-((3-(4-((4-(4-(3-(5-ethyl-2,4-dihydroxyphenyl)-5-hydroxy-4H-1,2,4-triazol-4-yl)-2-fluorobenzyl)piperazin-1-yl)methyl)piperidin-1-yl)-3-oxopropyl)amino)-7-(3-hydroxynaphthalen-1-yl)-5,6,7,8-tetrahydropyrido[3,4-d]pyrimidin-4-yl)piperazin-1-yl)prop-2-en-1-one, trifluoroacetic acid] | 0.1 to 1 | 0.1 to 1
C=CC(=O)N1CCN(c2nc(NCCC(=O)NCCOc3ccc(-n4c(O)nnc4-c4cc(C(C)C)c(O)cc4O)cc3)nc3c2CCN(c2cc(O)cc4ccccc24)C3)CC1 [Compound 3, 3-((4-(4-acryloylpiperazin-1-yl)-7-(3-hydroxynaphthalen-1-yl)-5,6,7,8-tetrahydropyrido[3,4-d]pyrimidin-2-yl)amino)-N-(2-(4-(3-(2,4-dihydroxy-5-isopropylphenyl)-5-hydroxy-4H-1,2,4-triazol-4-yl)phenoxy)ethyl)propanamide, trifluoroacetic acid] | 0.1 to 1 | > 1
C=CC(=O)N1CCN(c2nc(NCCC(=O)NCc3ccc(-n4c(O)nnc4-c4cc(CC)c(O)cc4O)cc3F)nc3c2CCN(c2cc(O)cc4ccccc24)C3)CC1 [Compound 41, 3-((4-(4-acryloylpiperazin-1-yl)-7-(3-hydroxynaphthalen-1-yl)-5,6,7,8-tetrahydropyrido[3,4-d]pyrimidin-2-yl)amino)-N-(4-(3-(5-ethyl-2,4-dihydroxyphenyl)-5-hydroxy-4H-1,2,4-triazol-4-yl)-2-fluorobenzyl)propanamide, trifluoroacetic acid] | 0.1 to 1 | > 1
C=CC(=O)N1CCN(c2nc(NCCC(=O)NCc3ccc(-n4c(O)nnc4-c4ccc(O)cc4O)cc3)nc3c2CCN(c2cc(O)cc4ccccc24)C3)CC1 [Compound 27, 3-((4-(4-acryloylpiperazin-1-yl)-7-(3-hydroxynaphthalen-1-yl)-5,6,7,8-tetrahydropyrido[3,4-d]pyrimidin-2-yl)amino)-N-(4-(3-(2,4-dihydroxyphenyl)-5-hydroxy-4H-1,2,4-triazol-4-yl)benzyl)propanamide, trifluoroacetic acid] | > 1 | > 1
C=CC(=O)N1CCN(C2CN(c3cc(O)cc4ccccc34)Cc3nc(NCCC(=O)NCCOCCOCCOc4ccc(-n5c(O)nnc5-c5cc(C(C)C)c(O)cc5O)cc4)ncc32)CC1 (stereo not shown) [Compound 9, 3-((5-(4-acryloylpiperazin-1-yl)-7-(3-hydroxynaphthalen-1-yl)-5,6,7,8-tetrahydropyrido[3,4-d]pyrimidin-2-yl)amino)-N-(2-(2-(2-(4-(3-(2,4-dihydroxy-5-isopropylphenyl)-5-hydroxy-4H-1,2,4-triazol-4-yl)phenoxy)ethoxy)ethoxy)ethyl)propanamide, trifluoroacetic acid] | 0.1 to 1 | > 1

Second part, the molecule after the results:

IC50 (HSP90a protein) [µM] | EC50 [1] [µM] | SMILES
> 1 | > 1 | CCC(=O)N1CCN(c2nc(NCCC(=O)N3CCN(Cc4ccc5c(c4)CN(C(=O)c4cc(CC)c(O)cc4O)C5)CC3)nc3c2CCN(c2cc(O)cc4ccccc24)C3)CC1 [Compound 66, 1-(4-((2-(5-ethyl-2,4-dihydroxybenzoyl)isoindolin-5-yl)methyl)piperazin-1-yl)-3-((7-(3-hydroxynaphthalen-1-yl)-4-(4-propionylpiperazin-1-yl)-5,6,7,8-tetrahydropyrido[3,4-d]pyrimidin-2-yl)amino)propan-1-one, trifluoroacetic acid]
0.1 to 1 | > 1 | CC(=O)N1CCN(c2nc(NCCC(=O)NCCOCCOc3ccc(-n4c(O)nnc4-c4cc(C(C)C)c(O)cc4O)cc3)nc3c2CCN(c2cc(O)cc4ccccc24)C3)CC1 [Compound 70, 3-((4-(4-acetylpiperazin-1-yl)-7-(3-hydroxynaphthalen-1-yl)-5,6,7,8-tetrahydropyrido[3,4-d]pyrimidin-2-yl)amino)-N-(2-(2-(4-(3-(2,4-dihydroxy-5-isopropylphenyl)-5-hydroxy-4H-1,2,4-triazol-4-yl)phenoxy)ethoxy)ethyl)propanamide, trifluoroacetic acid]
> 1 | > 1 | C=CC(=O)N1CCN(c2nc(NCCC(=O)N3CCN(Cc4ccc5c(c4F)CN(C(=O)c4cc(C)c(O)cc4O)C5)CC3)nc3c2CCN(c2cc(O)cc4ccccc24)C3)CC1 [Compound 107, 1-(4-(2-((3-(4-((2-(2,4-dihydroxy-5-methylbenzoyl)-4-fluoroisoindolin-5-yl)methyl)piperazin-1-yl)-3-oxopropyl)amino)-7-(3-hydroxynaphthalen-1-yl)-5,6,7,8-tetrahydropyrido[3,4-d]pyrimidin-4-yl)piperazin-1-yl)prop-2-en-1-one, trifluoroacetic acid]
0.1 to 1 | > 1 | C=CC(=O)N1CCN(c2nc(NCCC(=O)NCCOCCOCCOc3ccc(-n4c(O)nnc4-c4cc(C(C)C)c(O)cc4O)cc3)nc3c2CCN(c2cccc4cccc(Cl)c24)C3)C[C@@H]1CC#N [Compound 93, (S)-3-((4-(4-acryloyl-3-(cyanomethyl)piperazin-1-yl)-7-(8-chloronaphthalen-1-yl)-5,6,7,8-tetrahydropyrido[3,4-d]pyrimidin-2-yl)amino)-N-(2-(2-(2-(4-(3-(2,4-dihydroxy-5-isopropylphenyl)-5-hydroxy-4H-1,2,4-triazol-4-yl)phenoxy)ethoxy)ethoxy)ethyl)propanamide, trifluoroacetic acid]
0.1 to 1 | > 1 | CCCc1cc(-c2nnc(O)n2-c2ccc(CN3CCN(CC4CCN(C(=O)CCNc5nc6c(c(N7CCN(C(=O)CC)CC7)n5)CCN(c5cc(O)cc7ccccc57)C6)CC4)CC3)cc2)c(O)cc1O [Compound 52, 1-(4-((4-(4-(3-(2,4-dihydroxy-5-propylphenyl)-5-hydroxy-4H-1,2,4-triazol-4-yl)benzyl)piperazin-1-yl)methyl)piperidin-1-yl)-3-((7-(3-hydroxynaphthalen-1-yl)-4-(4-propionylpiperazin-1-yl)-5,6,7,8-tetrahydropyrido[3,4-d]pyrimidin-2-yl)amino)propan-1-one]
0.1 to 1 | 0.1 to 1 | CC(=O)N1CCN(c2nc(NCCC(=O)N3CCN(Cc4ccc(CN(C)Cc5ccc(-n6c(C(=O)NCC(F)(F)F)nnc6-c6cc(C(C)C)c(O)cc6O)cc5)cc4)CC3)nc3c2CCN(c2cccc4ccccc24)C3)C[C@H]1CC#N [Compound 124, (R)-4-(4-(((4-((4-(3-((4-(4-acetyl-3-(cyanomethyl)piperazin-1-yl)-7-(naphthalen-1-yl)-5,6,7,8-tetrahydropyrido[3,4-d]pyrimidin-2-yl)amino)propanoyl)piperazin-1-yl)methyl)benzyl)(methyl)amino)methyl)phenyl)-5-(2,4-dihydroxy-5-isopropylphenyl)-N-(2,2,2-trifluoroethyl)-4H-1,2,4-triazole-3-carboxamide, trifluoroacetic acid]
0.1 to 1 | > 1 | CC(=O)N1CCN(c2nc(NCCC(=O)NCc3ccc(-n4c(O)nnc4-c4cc(C(C)C)c(O)cc4O)cc3F)nc3c2CCN(c2cc(O)cc4ccccc24)C3)CC1 [Compound 49, 3-((4-(4-acetylpiperazin-1-yl)-7-(3-hydroxynaphthalen-1-yl)-5,6,7,8-tetrahydropyrido[3,4-d]pyrimidin-2-yl)amino)-N-(4-(3-(2,4-dihydroxy-5-isopropylphenyl)-5-hydroxy-4H-1,2,4-triazol-4-yl)-2-fluorobenzyl)propanamide, trifluoroacetic acid]
0.1 to 1 | > 1 | C=CC(=O)N1CCN(c2nc(NCCC(=O)NCc3ccc(-n4c(O)nnc4-c4cc(C(C)C)c(O)cc4O)cc3C(F)(F)F)nc3c2CCN(c2cccc4ccccc24)C3)C[C@H]1CC#N [Compound 82, (R)-3-((4-(4-acryloyl-3-(cyanomethyl)piperazin-1-yl)-7-(naphthalen-1-yl)-5,6,7,8-tetrahydropyrido[3,4-d]pyrimidin-2-yl)amino)-N-(4-(3-(2,4-dihydroxy-5-isopropylphenyl)-5-hydroxy-4H-1,2,4-triazol-4-yl)-2-(trifluoromethyl)benzyl)propanamide, trifluoroacetic acid]
